Source: patent US20130045983A1, “HSP90 INHIBITORS FOR THERAPEUTIC TREATMENT” (Novartis AG, priority 2008, published 2013)

Assays:
Format in all cases: cell-based
CXF 214 = test: Clonogenic assay, CXF 214; conditions: Homo sapiens, Stomach, Adenocarcinoma, soft agar, read-out: IC50 (colony formation)
Experimental: (§1) The anticancer activity of (R)-2-amino-7-[2-(6-methoxy-pyridin-2-yl)-phenyl]-4-methyl-7,8-dihydro-6H-pyrido[4,3-d]pyrimidin-5-one is evaluated in 30 human tumor xenografts in vitro using a clonogenic assay. In this assay, human cells derived from cancer patients are evaluated for the capacity of (R)-2-amino-7-[2-(6-methoxy-pyridin-2-yl)-phenyl]-4-methyl-7,8-dihydro-6H-pyrido[4,3-d]pyrimidin-5-one to inhibit the formation of 3 dimensional colonies. […] The tumor xenografts which have never been cultured in cell culture plastic dishes are isolated from nude mice. Tumor cell suspensions are prepared and incubated in 24 well plates containing layers of soft agar. Under these conditions a special subpopulation of cells selectively grows to colonies. (R)-2-amino-7-[2-(6-methoxy-pyridin-2-yl)-phenyl]-4-methyl-7,8-dihydro-6H-pyrido[4,3-d]pyrimidin-5one is tested in 6 concentrations up to 1000 nM. The tumor test panel comprises 1 to 10 models of 12 different human tumor types, which were bladder cancer, colon, gastric, non small cell lung (adeno, squamous cell, and large cell), small cell lung, mammary, ovary, and prostate cancer, as well as leukemia, lymphoma, melanoma, and sarcoma. Antitumor effects are recorded as inhibition of colony formation in relation to untreated controls. […]

A2780 = test: Cell proliferation assay, A2780 (ovarian); conditions: Homo sapiens, 72 hours in presence of compound
Experimental: (§2) Seventeen cancer derived cell lines are used (GTL-16, N87, H1975, A549, H69, A2780, PC3, BT474, SKBR3, MCF-7, A375, MV4;11, K562, KM12L4A, H929, OPM-2 and KMS-11) to test the effect of (R)-2-amino-7-[2-(6-methoxy-pyridin-2-yl)-phenyl]-4-methyl-7,8-dihydro-6H-pyrido[4,3-d]pyrimidin-5-one. These cell lines cover the following 9 tumor types: Gastric, Lung, Ovarian, Prostate, Breast, Melanoma, Leukemia, Colon and Multiple myeloma. After division and medium change, cells from stock culture are seeded on cell plates and cultured for about 18 hours to allow cell growth and attachment before starting the assay. Then on the first day of the assay, (R)-2-amino-7-[2-(6-methoxy-pyridin-2-yl)-phenyl]-4-methyl-7,8-dihydro-6H-pyrido[4,3-d]pyrimidin-5-one is added to the medium at various concentrations. Cells are cultured up to 72 or 96 hours and cell proliferation is determined using commercially available cell proliferation kits.
(§3) Table 1 relates to the concentration in nM of (R)-2-amino-7-[2-(6-methoxy-pyridin-2-yl)-phenyl]-4-methyl-7,8-dihydro-6H-pyrido[4,3-d]pyrimidin-5-one which inhibits cell proliferation by 50% (IC50). […]

A549 = test: Cell proliferation assay, A549 (lung); conditions: Homo sapiens, 72 hours in presence of compound
Experimental: as §2, §3

MEXF 989 = test: Clonogenic assay, MEXF 989; conditions: Homo sapiens, Amelanotic melanoma, soft agar, read-out: IC50 (colony formation)
Experimental: as §1

MEXF 1341 = test: Clonogenic assay, MEXF 1341; conditions: Homo sapiens, Amelanotic melanoma, soft agar, read-out: IC50 (colony formation)
Experimental: as §1

OPM-2 = test: Cell proliferation assay, OPM-2 (multiple myeloma); conditions: Homo sapiens, 72 hours in presence of compound
Experimental: as §2, §3

MCF-7 = test: Cell proliferation assay, MCF-7 (breast); conditions: Homo sapiens, MCF7, 72 hours in presence of compound
Experimental: as §2, §3

LXFE 211 = test: Clonogenic assay, LXFE 211; conditions: Homo sapiens, Lung, non-small cell, Squamous cell carcinoma, soft agar, read-out: IC50 (colony formation)
Experimental: as §1

SXF 1301 = test: Clonogenic assay, SXF 1301; conditions: Homo sapiens, Sarcoma, Malignant rhabdomyosarcoma, soft agar, read-out: IC50 (colony formation)
Experimental: as §1

OVXF 899 = test: Clonogenic assay, OVXF 899; conditions: Homo sapiens, Ovary, Pap. serous adenocarcinoma, soft agar, read-out: IC50 (colony formation)
Experimental: as §1

MAXF 1384 = test: Clonogenic assay, MAXF 1384; conditions: Homo sapiens, Breast, Adenocarcinoma, soft agar, read-out: IC50 (colony formation)
Experimental: as §1

PRXF PC3M = test: Clonogenic assay, PRXF PC3M; conditions: Homo sapiens, PC-3M, Prostate, Adenocarcinoma, metastatic, soft agar, read-out: IC50 (colony formation)
Experimental: as §1

LXFE 1422 = test: Clonogenic assay, LXFE 1422; conditions: Homo sapiens, Lung, non-small cell, Squamous cell carcinoma, soft agar, read-out: IC50 (colony formation)
Experimental: as §1

MAXF 857 = test: Clonogenic assay, MAXF 857; conditions: Homo sapiens, Breast, Invasive ductal carcinoma, soft agar, read-out: IC50 (colony formation)
Experimental: as §1

LXFL 1647 = test: Clonogenic assay, LXFL 1647; conditions: Homo sapiens, Lung, non-small cell, Large cell lung carcinoma, soft agar, read-out: IC50 (colony formation)
Experimental: as §1

LEXF JURKAT = test: Clonogenic assay, LEXF JURKAT; conditions: Homo sapiens, Leukemia, T cell leukemia, soft agar, read-out: IC50 (colony formation)
Experimental: as §1

MAXF 401 = test: Clonogenic assay, MAXF 401; conditions: Homo sapiens, MAXF401, Breast, Pap. adenocarcinoma, soft agar, read-out: IC50 (colony formation)
Experimental: as §1

GXF 209 = test: Clonogenic assay, GXF 209; conditions: Homo sapiens, Stomach, Signet-ring cell carcinoma, soft agar, read-out: IC50 (colony formation)
Experimental: as §1

LXFL 1176 = test: Clonogenic assay, LXFL 1176; conditions: Homo sapiens, Lung, non-small cell, Mucous large cell lung carcinoma, soft agar, read-out: IC50 (colony formation)
Experimental: as §1

MAXF 1322 = test: Clonogenic assay, MAXF 1322; conditions: Homo sapiens, Breast, Pap. adenocarcinoma, soft agar, read-out: IC50 (colony formation)
Experimental: as §1

IC50 (CXF 214): > 1000 nM
GI50 (A2780): 27 nM
GI50 (A549): 16 nM
IC50 (MEXF 989): 17 nM
IC50 (MEXF 1341): > 1000 nM
GI50 (OPM-2): 13 nM
GI50 (MCF-7): 8 nM
IC50 (LXFE 211): 0.76 nM
IC50 (SXF 1301): 26 nM
IC50 (OVXF 899): > 100 nM
IC50 (MAXF 1384): 14 nM
IC50 (PRXF PC3M): 276 nM
IC50 (LXFE 1422): 20 nM
IC50 (MAXF 857): 12 nM
IC50 (LXFL 1647): 203 nM
IC50 (LEXF JURKAT): 4 nM
IC50 (MAXF 401): 15 nM
IC50 (GXF 209): 28 nM
IC50 (LXFL 1176): 21 nM
IC50 (MAXF 1322): 52 nM
SMILES: COc1cccc(-c2ccccc2[C@H]2Cc3nc(N)nc(C)c3C(=O)N2)n1 [(R)-2-amino-7-[2-(6-methoxy-pyridin-2-yl)-phenyl]-4-methyl-7,8-dihydro-6H-pyrido[4,3-d]pyrimidin-5-one]
